Results on 32 compounds are retold here after patent US7205295B2, “Benzoxazin-3-ones and derivatives thereof as therapeutic agents” (Warner-Lambert Company LLC, priority 2002, dated 2007).

Counter-ions that a name gives are not always drawn.

The target in this assay is T1, PI3Kγ (p101/p110γ protein) (Homo sapiens, UniProt P48736).
T1 construct: HA; made in house; host or cells: Spodoptera frugiperda (Sf9) cells, baculovirus co-infection
T1 sequence (P48736 whole entry, species assumed): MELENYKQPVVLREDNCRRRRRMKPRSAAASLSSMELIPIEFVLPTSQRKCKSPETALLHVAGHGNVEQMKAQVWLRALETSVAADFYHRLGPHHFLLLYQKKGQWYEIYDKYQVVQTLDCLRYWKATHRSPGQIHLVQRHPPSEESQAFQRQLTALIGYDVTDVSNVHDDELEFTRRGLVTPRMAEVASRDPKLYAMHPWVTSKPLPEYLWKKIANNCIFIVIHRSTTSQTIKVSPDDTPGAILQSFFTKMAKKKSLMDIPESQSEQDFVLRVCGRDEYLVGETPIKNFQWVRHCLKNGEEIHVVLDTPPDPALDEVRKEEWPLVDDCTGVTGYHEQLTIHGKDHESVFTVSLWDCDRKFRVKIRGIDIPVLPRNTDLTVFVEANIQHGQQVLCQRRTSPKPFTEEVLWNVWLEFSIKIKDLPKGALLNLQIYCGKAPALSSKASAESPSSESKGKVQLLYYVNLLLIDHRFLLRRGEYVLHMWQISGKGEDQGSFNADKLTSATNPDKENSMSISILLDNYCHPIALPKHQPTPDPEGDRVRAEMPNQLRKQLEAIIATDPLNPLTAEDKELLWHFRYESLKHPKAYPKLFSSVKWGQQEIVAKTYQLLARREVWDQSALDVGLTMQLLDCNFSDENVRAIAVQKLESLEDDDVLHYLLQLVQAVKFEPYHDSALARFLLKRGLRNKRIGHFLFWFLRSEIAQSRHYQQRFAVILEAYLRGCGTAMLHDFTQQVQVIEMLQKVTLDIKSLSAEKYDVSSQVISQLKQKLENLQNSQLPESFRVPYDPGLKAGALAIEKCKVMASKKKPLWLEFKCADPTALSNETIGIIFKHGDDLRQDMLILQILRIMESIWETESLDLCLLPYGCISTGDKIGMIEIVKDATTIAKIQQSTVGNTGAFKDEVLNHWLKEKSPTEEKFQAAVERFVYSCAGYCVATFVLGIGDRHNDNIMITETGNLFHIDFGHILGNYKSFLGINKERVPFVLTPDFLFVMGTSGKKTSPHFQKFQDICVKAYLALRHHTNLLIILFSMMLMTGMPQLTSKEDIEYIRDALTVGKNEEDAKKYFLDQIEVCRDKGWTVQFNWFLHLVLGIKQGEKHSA
T1 sequence (Q8WYR1 whole entry partner, species assumed): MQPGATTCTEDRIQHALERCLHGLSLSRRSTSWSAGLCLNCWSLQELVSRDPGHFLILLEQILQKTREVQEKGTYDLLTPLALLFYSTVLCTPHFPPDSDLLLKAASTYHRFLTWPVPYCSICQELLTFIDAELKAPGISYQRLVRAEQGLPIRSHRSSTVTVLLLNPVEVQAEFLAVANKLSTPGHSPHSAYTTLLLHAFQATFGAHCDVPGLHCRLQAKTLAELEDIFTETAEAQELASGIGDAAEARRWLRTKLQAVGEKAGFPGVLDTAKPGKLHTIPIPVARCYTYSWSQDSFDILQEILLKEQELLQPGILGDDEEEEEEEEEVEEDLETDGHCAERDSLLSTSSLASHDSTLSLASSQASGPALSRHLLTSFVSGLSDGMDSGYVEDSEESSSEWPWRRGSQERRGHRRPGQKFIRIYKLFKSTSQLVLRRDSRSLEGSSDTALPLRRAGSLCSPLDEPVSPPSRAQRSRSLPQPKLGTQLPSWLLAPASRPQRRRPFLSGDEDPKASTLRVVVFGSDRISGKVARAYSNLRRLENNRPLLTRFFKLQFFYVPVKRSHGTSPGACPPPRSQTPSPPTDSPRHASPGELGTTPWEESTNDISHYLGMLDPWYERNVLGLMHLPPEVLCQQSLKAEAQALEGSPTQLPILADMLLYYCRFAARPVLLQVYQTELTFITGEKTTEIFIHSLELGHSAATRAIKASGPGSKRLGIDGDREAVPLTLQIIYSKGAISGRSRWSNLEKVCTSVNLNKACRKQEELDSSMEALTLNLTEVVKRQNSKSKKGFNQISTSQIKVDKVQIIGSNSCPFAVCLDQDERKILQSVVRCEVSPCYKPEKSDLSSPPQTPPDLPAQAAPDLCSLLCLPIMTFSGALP
Kind of assay: PI3Kγ In Vitro Kinase Assay. The format is biochemical. Conditions: purified recombinant p101/p110γ with G protein β1/γ2 subunits; 20 μM ATP, 25 μM PIP2; 20 minutes at room temperature. Summed up: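 Sf9-expressed, purified human p101/p110γ (2.7 nM) was activated by Gβ1/γ2 (57.7 nM) and reacted with 20 μM ATP plus [γ-32P]ATP on PIP2 (25 μM)/PE (300 μM) micelles with 10 mM MgCl2 in HEPES buffer. Reactions ran 20 min at room temperature. Filter-captured radiolabeled PIP3 was counted by scintillation.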
As usually defined, the IC50 is the midpoint of a concentration-inhibition curve. Regarding `O=C1NC(=S)SC1=Cc1ccc2c(c1)N(Cc1ccc(Cl)s1)C(=O)CO2` [Example 322, 4-(5-Chloro-thiophen-2-ylmethyl)-6-(4-oxo-2-thioxo-thiazolidin-5-ylidenemethyl)-4H-benzo[1,4]oxazin-3-one], the IC50 amounted to 3 nM. For `O=C1NC(=S)SC1=Cc1cc(F)c2c(c1)N(CCOc1ccc(F)cc1)C(=O)CO2` [Example 310, 8-Fluoro-4-[2-(4-fluoro-phenoxy)-ethyl]-6-(4-oxo-2-thioxo-thiazolidin-5-ylidenemethyl)-4H-benzo[1,4]oxazin-3-one], the half-maximal inhibitory concentration (IC50) worked out at 9 nM. Next, `CC(C)(C)c1cc(CN2C(=O)COc3ccc(C=C4SC(=S)NC4=O)cc32)n(Cc2ccccc2)n1` [Example 327, 4-(2-Benzyl-5-tert-butyl-2H-pyrazol-3-ylmethyl)-6-(4-oxo-2-thioxo-thiazolidin-5-ylidenemethyl)-4H-benzo[1,4]oxazin-3-one]: 245 nM; `O=C1NC(=S)SC1=Cc1ccc2c(c1)N(Cc1ccc3nccnc3c1)C(=O)CO2` [Example 314, 6-(4-Oxo-2-thioxo-thiazolidin-5-ylidenemethyl)-4-quinoxalin-6-ylmethyl-4H-benzo[1,4]oxazin-3-one]: 36 nM. Next, `CCCCN1CCN(Cc2ccc(CN3C(=O)COc4ccc(C=C5SC(=S)NC5=O)cc43)cc2)CC1` [Example 77, 4-[4-(4-Butyl-piperazin-1-ylmethyl)-benzyl]-6-(4-oxo-2-thioxo-thiazolidin-5-ylidenemethyl)-4H-1,4-benzoxazin-3-one]: 21 nM; `Cc1cc(CN2C(=O)COc3ccc(C=C4SC(=S)NC4=O)cc32)cc(-c2ccoc2)c1` [Example 115, 4-(3-Furan-3-yl-5-methyl-benzyl)-6-(4-oxo-2-thioxo-thiazolidin-5-ylidenemethyl)-4H-benzo[1,4]oxazin-3-one]: 15 nM; `CC(C)n1cnc2ccc(CN3C(=O)COc4ccc(C=C5SC(=S)NC5=O)cc43)cc21` [Example 336, 4-(3-Isopropyl-3H-benzimidazol-5-ylmethyl)-6-(4-oxo-2-thioxo-thiazolidin-5-ylidenemethyl)-4H-1,4-benzoxazin-3-one]: 9 nM. Next, `Cc1cc(CN2C(=O)COc3ccc(C=C4SC(=S)NC4=O)cc32)cc(-c2c(C)noc2C)c1` [Example 117, 4-[3-(3,5-Dimethyl-isoxazol-4-yl)-5-methyl-benzyl]-6-(4-oxo-2-thioxo-thiazolidin-5-ylidenemethyl)-4H-benzo[1,4]oxazin-3-one]: 40 nM. On to `O=C1COc2ccc(C=C3NC(=S)NC3=O)cc2N1` [Example 200, 6-(5-Oxo-2-thioxo-imidazolidin-4-ylidenemethyl)-4H-benzo[1,4]oxazin-3-one], for which the half-inhibitory concentration (IC50) came to 3640 nM. Next, `O=C1NC(=S)S/C1=C\c1ccc2oc(=O)n(Cc3ccc(Cl)c(Cl)c3)c2c1` [Example 286, 3-(3,4-Dichloro-benzyl)-5-[4-oxo-2-thioxo-thiazolidin-(5Z)-ylidenemethyl]-3H-benzooxazol-2-one]: 220 nM. For `CC(C)(C)C1CC(CN2C(=O)COc3ccc(C=C4SC(=S)NC4=O)cc32)CC(C(C)(C)C)C1` (centres unmarked) [Example 250, 4-(3,5-Di-tert-butyl-cyclohexylmethyl)-6-(4-oxo-2-thioxo-thiazolidin-5-ylidenemethyl)-4H-1,4-benzoxazin-3-one], the IC50 was 175 nM. Next, `Cc1cc(CN2C(=O)COc3ccc(C=C4SC(=S)NC4=O)cc32)c(C(F)(F)F)o1` [Example 324, 4-(5-Methyl-2-triflouromethyl-furan-3-ylmethyl)-6-(4-oxo-2-thioxo-thiazolidin-5-ylidenemethyl)-4H-benzo[1,4]oxazin-3-one]: 33 nM. Consider `O=C1NC(=S)SC1=Cc1ccc2c(c1)N(CCCc1cccc(Cl)c1Cl)C(=O)CO2` [Example 127, 4-[3-(2,3-Dichloro-phenyl)-propyl]-6-(4-oxo-2-thioxo-thiazolidin-5-ylidenemethyl)-4H-benzo[1,4]oxazin-3-one], for which the IC50 is 43 nM. As for `CC(C)(C)OC(=O)N1CCN(Cc2ccc(CN3C(=O)COc4ccc(C=C5SC(=S)NC5=O)cc43)cc2)CC1` [Example 74, 4-{4-[3-Oxo-6-(4-oxo-2-thioxo-thiazolidin-5-ylidenemethyl)-2,3-dihydro-1,4-benzoxazin-4-ylmethyl]-benzyl}-piperazine-1-carboxylic acid tert-butyl ester], the IC50 was found to be 19 nM. For `C[C@@H]1Oc2ccc(C=C3SC(=S)NC3=O)cc2N(CCc2ccc(Cl)c(Cl)c2)C1=O` [Example 109, (S)-4-[2-(3,4-Dichloro-phenyl)-ethyl]-2-methyl-6-(4-oxo-2-thioxo-thiazolidin-5-ylidenmethyl)-4H-benzo[1,4]oxazin-3-one], the concentration for half-maximal inhibition (IC50) came to 330 nM. On to `Cc1cc(CN2C(=O)COc3ccc(C=C4SC(=S)NC4=O)cc32)n(C)n1` [Example 339, 4-(2,5-Dimethyl-2H-pyrazol-3-ylmethyl)-6-(4-oxo-2-thioxo-thiazolidin-5-ylidenemethyl)-4H-1,4-benzoxazin-3-one], for which the IC50 is 80 nM. Regarding `O=C1NC(=S)SC1=Cc1cc(F)c2c(c1)N(Cc1ccc(CN3CCCCC3)cc1)C(=O)CO2` [Example 73, 8-Fluoro-6-(4-oxo-2-thioxo-thiazolidin-5-ylidenemethyl)-4-(4-piperidin-1-ylmethyl-benzyl)-4H-1,4-benzoxazin-3-one], the IC50 was 7 nM. For the compound `O=C1NC(=O)C(=Cc2ccc3c(c2)N(Cc2ccc(Cl)c(Cl)c2)C(=O)CO3)S1` [Example 246, 5-[4-(3,4-Dichloro-benzyl)-3-oxo-3,4-dihydro-2H-benzo[1,4]oxazin-6-ylmethylene]-thiazolidine-2,4-dione], the IC50 came to 3 nM. Regarding `Cc1cc(C)cc(CN2C(=O)COc3c(F)cc(C=C4SC(=S)NC4=O)cc32)c1` [Example 69, 4-(3,5-Dimethyl-benzyl)-8-fluoro-6-(4-oxo-2-thioxo-thiazolidin-5-ylidenemethyl)-4H-1,4-benzoxazin-3-one], the 50% inhibitory concentration (IC50) was 8 nM. On to `O=C1NC(=S)SC1=Cc1ccc2c(c1)N(Cc1ccc(Cl)c(Cl)c1)C(=O)CS2` [Example 198, 4-(3,4-Dichloro-benzyl)-6-(4-oxo-2-thioxo-thiazolidin-5-ylidenemethyl)-4H-1,4-benzothiazin-3-one], for which the half-maximal inhibitory concentration (IC50) came to 6 nM.

With `CS(=O)(=O)c1ccc(CN2C(=O)COc3ccc(C=C4SC(=S)NC4=O)cc32)cc1` [Example 193, 4-(4-Methanesulfonyl-benzyl)-6-(4-oxo-2-thioxo-thiazolidin-5-ylidenemethyl)-4H-1,4-benzoxazin-3-one, Potassium Salt], the IC50 stood at 6 nM.

With `CC(C)S(=O)(=O)c1cccc(CN2C(=O)COc3ccc(C=C4SC(=O)NC4=O)cc32)c1` [Example 252, 5-{3-Oxo-4-[3-(propane-2-sulfonyl)-benzyl]-3,4-dihydro-2H-1,4-benzoxazin-6-ylmethylene}-thiazolidine-2,4-dione], the IC50 stood at 21 nM.

Consider `Cc1ccc(CN2C(=O)COc3ccc(C=C4SC(=S)NC4=O)cc32)cc1` [Example 140, 4-(4-Methyl-benzyl)-6-(4-oxo-2-thioxo-thiazolidin-5-ylidenemethyl)-4H-benzo[1,4]oxazin-3-one], for which the IC50 turned out to be 29 nM.

Regarding `COC(=O)CN1C(=O)COc2ccc(C=C3SC(=S)NC3=O)cc21` [Example 7, [3-Oxo-6-(4-oxo-2-thioxo-thiazolidin-5-ylidenemethyl)-2,3-dihydro-1,4-benzoxazin-4-yl]-acetic acid methyl ester], the IC50 was 84 nM. Next, `Cc1cc(CN2C(=O)COc3ccc(C=C4SC(=S)NC4=O)cc32)cc(C(C)(C)C)c1` [Example 211, 4-(3-tert-Butyl-5-methyl-benzyl)-6-(4-oxo-2-thioxo-thiazolidin-5-ylidenemethyl)-4H-1,4-benzoxazin-3-one]: 17 nM; `O=C1NC(=O)C(=Cc2ccc3c(c2)N(Cc2ccncc2)C(=O)CO3)S1` [Example 227, 5-(3-Oxo-4-pyridin-4-ylmethyl-3,4-dihydro-2H-1,4-benzoxazin-6-ylmethylene)-thiazolidine-2,4-dione]: 48 nM. Next, `O=C1NC(=S)OC1=Cc1ccc2c(c1)N(Cc1ccc(Cl)c(Cl)c1)C(=O)CO2` [Example 191, 4-(3,4-Dichloro-benzyl)-6-(4-oxo-2-thioxo-oxazolidin-5-ylidenemethyl)-4H-1,4-benzoxazin-3-one]: 7 nM; “4-Ethyl-6-(4-oxo-2-thioxo-thiazolidin-5-ylidenemethyl)-4H-benzo[1,4]oxazin-3-one [Example 139]”: 42 nM. Next, `CN1CC(=O)N(Cc2ccccc2)c2cc(C=C3SC(=S)NC3=O)ccc21` [Example 197, 1-Benzyl-4-methyl-7-(4-oxo-2-thioxo-thiazolidin-5-ylidenemethyl)-3,4-dihydro-1H-quinoxalin-2-one]: 390 nM; `O=C1NC(=S)SC1=Cc1ccc2c(c1)N(Cc1ccc(SC(F)(F)F)cc1)C(=O)CO2` [Example 168, 6-(4-Oxo-2-thioxo-thiazolidin-5-ylidenemethyl)-4-(4-trifluoromethylsulfanyl-benzyl)-4H-1,4-benzoxazin-3-one]: 12 nM. Turning to `O=C(O)CN1C(=O)C(=Cc2ccc3c(c2)NC(=O)CO3)SC1=S` [Example 10, [4-Oxo-5-(3-oxo-3,4-dihydro-2H-1,4-benzoxazin-6-ylmethylene)-2-thioxo-thiazolidin-3-yl]-acetic acid; compound with trifluoro-acetic acid], the IC50 was found to be 3630 nM. Next, `O=C1NC(=S)SC1=Cc1ccc2c(c1)N(Cc1ccc(Cl)c(Cl)c1)C(=O)CO2` [Example 178, 4-(3,4-Dichloro-benzyl)-6-(4-oxo-2-thioxo-thiazolidin-5-ylidenemethyl)-4H-1,4-benzoxazin-3-one]: 4 nM.
